Reference: patent US10093642B2, “Multitarget hedgehog pathway inhibitors and uses thereof” (UNIVERSITA' DEGLI STUDI DI SIENA, priority 2013, dated 2018)

Columns and labels:
[1] = test system: MEF-Ptch−/− cells; experiment: Gli1 mRNA (quantitative RT-PCR) and protein (western blot) in MEF-Ptch−/− cells; format: cell-based, mouse; details: different concentrations, 48 h
Experimental: FIG. 8. […] (A) Gli1 mRNA levels were determined by quantitative RT-PCR, normalizing to HPRT (Hypoxanthine-guanine phosphoribosyl transferase) expression. Error bars indicate SD.
To analyze the antagonist properties of Glabrescione B under more physiological conditions, the inventors used MEF-Ptch^−/− cells, embryo fibroblasts derived from Ptch^−/− mouse, in which the activation of Hh signaling is consequence of Ptch1 deletion. Since Patched acts as upstream repressor of SMO, inhibition of the Hedgehog pathway from Patched is prevented and the Hedgehog pathway is constitutively activated in this cell lines, which turned out to be a reliable cellular model for studying the effect of Hedgehog inhibitors. […]
In order to determine whether Glabrescione B regulates cells with a constitutive Hh pathway activation, the MEF-Ptch^−/− cell line (a kind gift by M. Scott, Stanford University, CA, in which the activation of Hh signaling is consequence of Ptch1 deletion, Goodrich, L. V. et al, 1997) was treated with Glabrescione B at different concentrations and the effect on expression of Hh/Gli1 pathway was determined by quantitative RT-PCR and western blot analysis. […] Quantitative PCR (QPCR) analysis of Gli1 mRNA expression was performed on each cDNA sample using the ABI Prism 7900 Sequence Detection System employing Assay-on-Demand Reagents (Life Technologies). […]

[2] = test system: ASZ001 basal cell carcinoma cells; experiment: ASZ001 BCC cell growth, cell death and Gli1 mRNA; format: cell-based; details: in vitro treatment
Experimental: FIG. 15. Inhibition of Gli-dependent BCC tumor cell growth. ASZ001 BCC cells were treated with Glabrescione B (GlaB) 5 μM or DMSO only (A) or with Glabrescione B 1, 5 and 10 μM (GlaB) or DMSO only (B). After the indicated times, a trypan blue count was performed to determine the growth rate (A) or the percentage of cell death (B). (C) Gli1 mRNA expression levels were determined by qRT-PCR after treatment of ASZ001 BCC cells with Glabrescione B (GlaB) or DMSO only for the indicated times. Results are expressed in arbitrary units as relative quantification normalized with endogenous control β2-microglobulin and HPRT. […] Error bars indicate SD. *P<0.05 vs DMSO.
Total RNA was isolated with Trizol (Invitrogen, Eugene, Or, USA) and reverse transcribed with Superscript II reverse transcriptase and random hexamers (Invitrogen, Eugene, Or, USA). Quantitative real-time PCR (qRT-PCR) analysis of Gli1, Gli2, Ptch1, Ptch2, Nanog, Oct-4, Cyclin D1, Cyclin D2, Nmyc, HIP1, Sfrp1, Bmp2, IGF2, β-2 microglobulin, HPRT, mRNA expression was performed on each cDNA sample using the ABI Prism 7900HT Sequence Detection System employing Assay-on-Demand Reagents (Applied Biosystems, Foster City, Calif., USA). […]

[3] = test system: Hh signaling in mouse cerebellar progenitors; experiment: Hh target mRNA in cerebellar progenitors of 6-day old mice after s.c. injection; format: in vivo, CD1 mice; details: 100 μmol/Kg s.c. for 2 days
Source text: To assess the in vivo activity of Glabrescione B, we first tested its ability to suppress Hh signaling in 6-day old mouse cerebellar progenitors, considered the cell of origin of MB. 6-day old CD1 mice were randomly divided into two groups (n=6) and injected s.c. with solvent only (2-hydroxypropyl-β-cyclodextrin:ethanol, 3:1) or Glabrescione B in solvent (100 μmol/Kg) for 2 days (2-hydroxypropyl-β-cyclodextrin was purchased from Sigma Aldrich, St. Louis, Mo., USA). Cerebella were collected and mRNA levels were determined by qRT-PCR.

[4] = test system: Wnt/Bcatenin; experiment: Selectivity: unrelated signal transduction pathway Wnt/Bcatenin; format: cell-based

COc1cc(OC)c2c(=O)c(-c3ccc(OCC=C(C)C)c(OCC=C(C)C)c3)coc2c1 [Glabrescione B, 3-(3′,4′-bis(3-methylbut-2-enyloxy)phenyl)-5,7-dimethoxy-4H-chromen-4-one]
Gli1 mRNA and protein levels [1]: strongly reduced mRNA and protein levels of Gli1 | BCC cell proliferation [2]: impaired | Gli1 mRNA in BCC cells ([2]; qRT-PCR): suppression of Gli1 mRNA | cerebellar levels of Hh target genes (mRNA) [3]: reduced significantly | inhibition at 30 µM [4]: 0%
